Data: patent publication US20230139171A1 (SITA Information Networking Computing UK Limited, priority 2019, published 2023)

Tests used:
Type in all cases: cell-based
[1] = target: T1, human TLR7 (Homo sapiens, UniProt Q9NYK1); assay: TLR7 inhibition reporter assay (HEK-Blue cells, SEAP reporter, gardiquimod stimulation); settings: HEK-Blue cells overexpressing human TLR7, SEAP reporter, gardiquimod 7.5 μM; read-out: TLR7 IC50
T1 construct: host or cells: HEK-Blue cells
T1 sequence (Q9NYK1 27-1049): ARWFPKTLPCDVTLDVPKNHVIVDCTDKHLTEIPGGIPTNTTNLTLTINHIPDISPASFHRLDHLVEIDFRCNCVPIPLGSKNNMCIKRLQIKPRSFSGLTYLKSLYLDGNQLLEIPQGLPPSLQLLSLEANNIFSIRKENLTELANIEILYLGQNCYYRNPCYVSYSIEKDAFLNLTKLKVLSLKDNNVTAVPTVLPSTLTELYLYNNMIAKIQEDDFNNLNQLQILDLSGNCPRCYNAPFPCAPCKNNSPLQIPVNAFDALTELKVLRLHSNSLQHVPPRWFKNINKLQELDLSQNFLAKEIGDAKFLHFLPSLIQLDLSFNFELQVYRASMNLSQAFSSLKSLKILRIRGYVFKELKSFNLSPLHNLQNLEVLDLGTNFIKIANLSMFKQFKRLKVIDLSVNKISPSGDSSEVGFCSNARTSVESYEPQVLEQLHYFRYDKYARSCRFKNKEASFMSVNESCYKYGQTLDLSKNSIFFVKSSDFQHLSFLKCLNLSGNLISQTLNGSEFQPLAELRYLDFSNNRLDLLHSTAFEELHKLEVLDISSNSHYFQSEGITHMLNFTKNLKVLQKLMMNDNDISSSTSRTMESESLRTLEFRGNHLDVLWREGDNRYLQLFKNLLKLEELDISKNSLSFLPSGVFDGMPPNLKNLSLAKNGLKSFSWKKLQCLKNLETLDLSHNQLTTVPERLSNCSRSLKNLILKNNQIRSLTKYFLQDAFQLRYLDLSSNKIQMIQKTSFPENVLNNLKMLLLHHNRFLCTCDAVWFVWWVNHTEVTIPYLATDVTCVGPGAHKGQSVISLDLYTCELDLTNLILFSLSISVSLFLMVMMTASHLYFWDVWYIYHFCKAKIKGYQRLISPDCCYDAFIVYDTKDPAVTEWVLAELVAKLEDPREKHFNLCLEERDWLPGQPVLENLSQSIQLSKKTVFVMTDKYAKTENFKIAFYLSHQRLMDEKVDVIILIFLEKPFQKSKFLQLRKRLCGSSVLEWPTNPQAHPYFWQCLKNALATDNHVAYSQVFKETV
Summary of the method: (§1)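 Agonists used: gardiquimod 7.5 μM (TLR7), R848 15.9 μM (TLR8), ODN2006 5 nM (TLR9), added after 30 min room-temperature compound pre-treatment (0.05 nM–50 μM) of receptor-overexpressing HEK-Blue cells. SEAP reporter (NF-κB/AP-1 driven) read after 22 h at 37 °C; inhibition scaled between agonist+DMSO and reference-inhibitor wells.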

[2] = target: T2, human TLR8 (Homo sapiens, UniProt Q9NR97); assay: TLR8 inhibition reporter assay (HEK-Blue cells, SEAP reporter, R848 stimulation); settings: HEK-Blue cells overexpressing human TLR8, SEAP reporter, R848 15.9 μM; read-out: TLR8 IC50
T2 construct: host or cells: HEK-Blue cells
T2 sequence (Q9NR97 27-1041): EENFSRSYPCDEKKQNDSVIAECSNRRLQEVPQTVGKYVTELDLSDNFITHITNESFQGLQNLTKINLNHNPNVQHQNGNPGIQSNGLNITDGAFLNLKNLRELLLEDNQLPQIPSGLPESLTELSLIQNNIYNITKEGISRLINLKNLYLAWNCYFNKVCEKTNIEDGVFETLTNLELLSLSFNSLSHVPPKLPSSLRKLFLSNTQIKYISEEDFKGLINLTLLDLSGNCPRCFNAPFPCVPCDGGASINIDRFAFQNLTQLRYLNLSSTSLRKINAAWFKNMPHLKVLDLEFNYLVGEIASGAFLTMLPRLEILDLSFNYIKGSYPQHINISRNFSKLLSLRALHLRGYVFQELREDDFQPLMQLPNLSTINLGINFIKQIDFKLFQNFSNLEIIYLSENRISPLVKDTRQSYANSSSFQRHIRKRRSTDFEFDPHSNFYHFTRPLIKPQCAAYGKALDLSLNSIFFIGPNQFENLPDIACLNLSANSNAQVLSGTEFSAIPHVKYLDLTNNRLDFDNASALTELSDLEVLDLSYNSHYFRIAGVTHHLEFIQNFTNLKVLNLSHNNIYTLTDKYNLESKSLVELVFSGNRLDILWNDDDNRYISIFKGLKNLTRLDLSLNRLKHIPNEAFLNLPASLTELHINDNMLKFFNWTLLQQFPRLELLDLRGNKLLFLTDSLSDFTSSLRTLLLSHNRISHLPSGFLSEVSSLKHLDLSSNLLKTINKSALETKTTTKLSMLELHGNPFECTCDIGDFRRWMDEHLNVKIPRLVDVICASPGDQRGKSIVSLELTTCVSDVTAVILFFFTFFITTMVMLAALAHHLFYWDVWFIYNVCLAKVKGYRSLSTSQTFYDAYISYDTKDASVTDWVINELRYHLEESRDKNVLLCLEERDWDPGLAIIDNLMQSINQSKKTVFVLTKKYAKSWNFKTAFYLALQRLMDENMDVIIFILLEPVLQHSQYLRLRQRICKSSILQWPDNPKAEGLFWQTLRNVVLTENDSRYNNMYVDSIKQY
Summary of the method: as §1

[3] = target: T3, human TLR9 (Homo sapiens, UniProt Q9NR96); assay: TLR9 inhibition reporter assay (HEK-Blue cells, SEAP reporter, ODN2006 stimulation); settings: HEK-Blue cells overexpressing human TLR9, SEAP reporter, ODN2006 5 nM
T3 construct: host or cells: HEK-Blue cells
T3 sequence (Q9NR96 26-1032): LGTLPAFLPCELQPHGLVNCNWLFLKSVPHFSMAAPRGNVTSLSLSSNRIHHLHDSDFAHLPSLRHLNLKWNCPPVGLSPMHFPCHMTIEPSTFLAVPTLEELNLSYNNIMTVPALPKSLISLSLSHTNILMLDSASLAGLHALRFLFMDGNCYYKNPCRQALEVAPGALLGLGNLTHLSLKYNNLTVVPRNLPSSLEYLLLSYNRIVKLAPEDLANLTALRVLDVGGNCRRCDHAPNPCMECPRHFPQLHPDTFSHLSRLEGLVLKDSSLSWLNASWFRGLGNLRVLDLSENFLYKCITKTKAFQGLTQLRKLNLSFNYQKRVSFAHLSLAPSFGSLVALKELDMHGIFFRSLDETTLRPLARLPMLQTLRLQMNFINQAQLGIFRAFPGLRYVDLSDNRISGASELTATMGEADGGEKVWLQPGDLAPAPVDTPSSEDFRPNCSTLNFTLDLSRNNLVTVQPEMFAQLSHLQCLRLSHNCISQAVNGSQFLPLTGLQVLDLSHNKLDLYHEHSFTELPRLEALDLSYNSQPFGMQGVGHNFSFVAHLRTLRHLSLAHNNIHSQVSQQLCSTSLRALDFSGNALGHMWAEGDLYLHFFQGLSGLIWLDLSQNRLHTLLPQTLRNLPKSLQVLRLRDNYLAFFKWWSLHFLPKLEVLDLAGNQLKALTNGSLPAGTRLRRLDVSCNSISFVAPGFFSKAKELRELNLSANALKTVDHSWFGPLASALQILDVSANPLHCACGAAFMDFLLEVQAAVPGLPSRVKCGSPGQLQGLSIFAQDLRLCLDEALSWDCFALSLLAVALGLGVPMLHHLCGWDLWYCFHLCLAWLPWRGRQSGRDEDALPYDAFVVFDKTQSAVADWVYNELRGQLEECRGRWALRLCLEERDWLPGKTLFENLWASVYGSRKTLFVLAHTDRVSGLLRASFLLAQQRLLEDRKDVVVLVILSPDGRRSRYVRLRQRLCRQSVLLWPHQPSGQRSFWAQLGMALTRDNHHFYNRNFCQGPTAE
Summary of the method: as §1

Row | Compound | IC50 [1] [nM] | IC50 [2] [nM] | IC50 [3] [nM]
1 | Cc1c(-c2[nH]c3sc(C4CCN(C)CC4)nc3c2C(C)C)cn2ncnc2c1C [Example 49, 5-(7,8-dimethyl-[1,2,4]triazolo[1,5-a]pyridin-6-yl)-6-isopropyl-2-(1-methylpiperidin-4-yl)-4H-pyrrolo[3,2-d] thiazole] | 0.97 | 0.48 | 9220
2 | CCN1CCC(c2nc3c(C(C)C)c(-c4cn5ncnc5c(C)c4C)[nH]c3s2)CC1 [Example 50, 5-(7,8-dimethyl-[1,2,4]triazolo[1,5-a]pyridin-6-yl)-2-(1-ethylpiperidin-4-yl)-6-isopropyl-4H-pyrrolo[3,2-d]thiazole] | 1.27 | 2.74 | 17300
3 | CCCN1CCC(c2nc3c(C(C)C)c(-c4cn5ncnc5c(C)c4C)[nH]c3s2)CC1 [Example 51, 5-(7,8-dimethyl-[1,2,4]triazolo[1,5-a]pyridin-6-yl)-6-isopropyl-2-(1-propylpiperidin-4-yl)-4H-pyrrolo[3,2-d]thiazole] | 1.59 | 1.03 | 8800
4 | Cc1c(-c2[nH]c3sc(C4CCN(CC(C)C)CC4)nc3c2C(C)C)cn2ncnc2c1C [Example 52, 5-(7,8-dimethyl-[1,2,4]triazolo[1,5-a]pyridin-6-yl)-2-(1-isobutylpiperidin-4-yl)-6-isopropyl-4H-pyrrolo[3,2-d]thiazole] | 2.9 | 4.22 | 18000
5 | Cc1c(-c2[nH]c3sc(C4CCN(CC5CC5)CC4)nc3c2C(C)C)cn2ncnc2c1C [Example 53, 2-(1-(cyclopropylmethyl)piperidin-4-yl)-5-(7,8-dimethyl-[1,2,4]triazolo[1,5-a]pyridin-6-yl)-6-isopropyl-4H-pyrrolo[3,2-d]thiazole] | 0.94 | 0.79 | 5070
6 | CCC(CC)CN1CCC(c2nc3c(C(C)C)c(-c4cn5ncnc5c(C)c4C)[nH]c3s2)CC1 [Example 54, 5-(7,8-dimethyl-[1,2,4]triazolo[1,5-a]pyridin-6-yl)-2-(1-(2-ethylbutyl)piperidin-4-yl)-6-isopropyl-4H-pyrrolo[3,2-d]thiazole] | 1.1 | 3.74 | 6670
7 | Cc1c(-c2[nH]c3sc(C4CCN(CC(=O)N(C)C)CC4)nc3c2C(C)C)cn2ncnc2c1C [Example 57, 2-(4-(5-(7,8-dimethyl-[1,2,4]triazolo[1,5-a]pyridin-6-yl)-6-isopropyl-4H-pyrrolo[3,2-d]thiazol-2-yl)piperidin-1-yl)-N,N-dimethylacetamide] | 4.24 | 1.34 | 23100
8 | Cc1c(-c2[nH]c3sc(C4CCN(CC(N)=O)CC4)nc3c2C(C)C)cn2ncnc2c1C [Example 58, 2-(4-(5-(7,8-dimethyl-[1,2,4]triazolo[1,5-a]pyridin-6-yl)-6-isopropyl-4H-pyrrolo[3,2-d]thiazol-2-yl)piperidin-1-yl)acetamide] | 3.01 | 1.43 | 32800
9 | COc1cc(-c2[nH]c3sc(C4CCC(N5CC6(C5)CS(=O)(=O)C6)CC4)nc3c2C(C)C)cn2ncnc12 (stereo not drawn) [Example 97, 6-(4-(6-isopropyl-5-(8-methoxy-[1,2,4]triazolo[1,5-a]pyridin-6-yl)-4H-pyrrolo[3,2-d]thiazol-2-yl)cyclohexyl)-2-thia-6-azaspiro[3.3]heptane 2,2-dioxide] | 2.42 | 41.9 | 5490
10 | COc1cc(-c2[nH]c3sc(C4CCC(NC5(C#N)CC5)CC4)nc3c2C(C)C)cn2ncnc12 (stereo not drawn) [Example 106, 1-((4-(6-isopropyl-5-(8-methoxy-[1,2,4]triazolo[1,5-a]pyridin-6-yl)-4H-pyrrolo[3,2-d]thiazol-2-yl)cyclohexyl)amino)cyclopropane-1-carbonitrile] | 2.25 | 90.9 | 14300
11 | COc1cc(-c2[nH]c3sc(C4CCC(NC5(C#N)CC5)CC4)nc3c2C(C)C)cn2ncnc12 (stereo not drawn) [Example 107, 1-((4-(6-isopropyl-5-(8-methoxy-[1,2,4]triazolo[1,5-a]pyridin-6-yl)-4H-pyrrolo[3,2-d]thiazol-2-yl)cyclohexyl)amino)cyclopropane-1-carbonitrile] | 3.6 | 190 | 15400
12 | COc1cc(-c2[nH]c3sc(C4CCC(N(C)C5COC5)CC4)nc3c2C(C)C)cn2ncnc12 (stereo not drawn) [Example 124, N-(4-(6-isopropyl-5-(8-methoxy-[1,2,4]triazolo[1,5-a]pyridin-6-yl)-4H-pyrrolo[3,2-d]thiazol-2-yl)cyclohexyl)-N-methyloxetan-3-amine] | 7.72 | 31.5 | 28600
13 | COc1cc(-c2[nH]c3sc(C4CCC(NC(=O)CN(C)C)CC4)nc3c2C(C)C)cn2ncnc12 (stereo not drawn) [Example 126, 2-(dimethylamino)-N-(4-(6-isopropyl-5-(8-methoxy-[1,2,4]triazolo[1,5-a]pyridin-6-yl)-4H-pyrrolo[3,2-d]thiazol-2-yl)cyclohexyl)acetamide] | 0.98 | 6.83 | 13200
